How the values were obtained:
[1] = test system: antibodies in sera from SARS patients (sera 1a, 1b, 2, 6, 37, 62, London, SARS-yellow, SARS-green); assay type: binding, human; parameters: Binding of serum 6 to linear peptides of protein X1 of SARS-CoV Urbani / Binding of serum 37 to linear peptides of protein X1 of SARS-CoV Urbani / Binding of serum 6 to looped/cyclic peptide (PEPSCAN-ELISA) / Binding of serum 37 to looped/cyclic peptide (PEPSCAN-ELISA) / Binding of serum 37 to looped/cyclic peptides of protein X1 of SARS-CoV Urbani / Binding of serum 6 to linear peptides of protein X2 / Binding of serum 37 to linear peptides of protein X2 / Binding of serum 37 to looped/cyclic peptides of protein X2 of SARS-CoV Urbani / Binding of serum 6 to linear peptides of protein M of SARS-CoV Urbani / Binding of serum 37 to linear peptides of protein M of SARS-CoV Urbani / Binding of serum 6 to looped/cyclic peptides of protein M of SARS-CoV Urbani / Binding of serum 37 to looped/cyclic peptides of protein M of SARS-CoV Urbani / Binding of serum 6 to linear peptides of protein X3 of SARS-CoV Urbani / Binding of serum 37 to linear peptides of protein X3 of SARS-CoV Urbani / Binding of serum 37 to looped/cyclic peptides of protein X3 of SARS-CoV Urbani / Binding of serum 6 to linear peptides of protein X4 of SARS-CoV Urbani / Binding of serum 37 to linear peptides of protein X4 of SARS-CoV Urbani / Binding of serum 37 to looped/cyclic peptides of protein X4 of SARS-CoV Urbani / Binding of serum 6 to linear peptides of protein X5 of SARS-CoV Urbani / Binding of serum 37 to linear peptides of protein X5 of SARS-CoV Urbani / Binding of serum 37 to looped/cyclic peptides of protein X5 of SARS-CoV Urbani / Binding of serum 6 to linear peptides of protein N of SARS-CoV Urbani / Binding of serum 37 to linear peptides of protein N of SARS-CoV Urbani / Binding of serum 6 to linear peptide (PEPSCAN-ELISA) / Binding of serum 1a to looped/cyclic peptides of protein N of SARS-CoV Urbani / Binding of serum 1b to looped/cyclic peptides of protein N of SARS-CoV Urbani / Binding of serum 2 to looped/cyclic peptides of protein N of SARS-CoV Urbani / Binding of serum 6 to looped/cyclic peptides of protein N of SARS-CoV Urbani / Binding of serum 37 to looped/cyclic peptides of protein N of SARS-CoV Urbani / Binding of serum 62 to looped/cyclic peptides of protein N of SARS-CoV Urbani / Binding of serum London to looped/cyclic peptides of protein N of SARS-CoV Urbani / Binding of serum SARS-green to looped/cyclic peptides of protein N of SARS-CoV Urbani: unit not given here
[2] = test system: control sera (pooled serum of ten healthy LUMC hospital workers; commercial negative donor pooled serum from the Dutch bloodbank); assay type: binding, human; parameters: Binding of Control serum LUMC to linear peptides / Binding of Control serum Blood-bank to linear peptides / Binding of Control serum LUMC to looped peptides / Binding of Control Serum Blood-Bank to Looped peptides / Binding of Control serum LUMC to linear peptides of the protein M of SARS-CoV Urbani / Binding of Control serum Blood-bank to linear peptides of the protein M of SARS-CoV Urbani / Binding of Control serum LUMC to looped peptides of the protein M of SARS-CoV Urbani / Binding of Control Serum Blood-Bank to Looped peptides of the protein M of SARS-CoV Urbani: unit not given here
[3] = test system: rabbit serum obtained by immunizing a rabbit with the SARS-CoV strain Frankfurt 1; assay type: binding; parameters: Binding of a rabbit serum to linear peptides / Binding of a rabbit serum to looped peptides / Rabbit serum linear peptides / Rabbit serum looped peptides / Binding of a rabbit serum to linear peptides of protein N of SARS-CoV Urbani (Rabbit serum linear peptides) / Binding of a rabbit serum to looped/cyclic peptides of protein N of SARS-CoV Urbani (Rabbit serum looped peptides): unit not given here
[4] = test system: recombinant human anti-SARS-CoV antibody 03-018; assay type: binding; parameters: Binding of antibody 03-018 to linear peptides of the N protein of SARS-CoV Urbani / Binding of antibody 03-018 to looped/cyclic peptides of the N protein of SARS-CoV Urbani: unit not given here

Sequence | Binding of serum 1a to linear peptides of protein N of SARS-CoV Urbani [1] | Binding of serum 1a to looped/cyclic peptides of protein N of SARS-CoV Urbani [1] | Binding of serum 1b to linear peptides of protein N of SARS-CoV Urbani [1] | Binding of serum 1b to looped/cyclic peptides of protein N of SARS-CoV Urbani [1] | Binding of serum 2 to linear peptides of protein N of SARS-CoV Urbani [1] | Binding of serum 2 to looped/cyclic peptides of protein N of SARS-CoV Urbani [1] | Binding of serum 6 to linear peptides of protein N of SARS-CoV Urbani [1] | Binding of serum 6 to looped/cyclic peptides of protein N of SARS-CoV Urbani [1] | Binding of serum 37 to linear peptides of protein N of SARS-CoV Urbani [1] | Binding of serum 37 to looped/cyclic peptides of protein N of SARS-CoV Urbani [1] | Binding of serum 62 to linear peptides of protein N of SARS-CoV Urbani [1] | Binding of serum 62 to looped/cyclic peptides of protein N of SARS-CoV Urbani [1] | Binding of serum London to linear peptides of protein N of SARS-CoV Urbani [1] | Binding of serum London to looped/cyclic peptides of protein N of SARS-CoV Urbani [1] | Binding of serum SARS-green to linear peptides of protein N of SARS-CoV Urbani [1] | Binding of serum SARS-green to looped/cyclic peptides of protein N of SARS-CoV Urbani [1] | Binding of serum SARS-yellow to linear peptides of protein N of SARS-CoV Urbani [1] | Binding of serum SARS-yellow to looped/cyclic peptides of protein N of SARS-CoV Urbani [1] | Binding of antibody 03-018 to linear peptides of the N protein of SARS-CoV Urbani [4] | Binding of antibody 03-018 to looped/cyclic peptides of the N protein of SARS-CoV Urbani [4] | other results
NTNSGPDDQIGYYRR | 0.2 | 0.5 | 0.1 | 0.4 | 0.2 | 0.5 | 0.2 | 0.3 | 0.6 | 0.9 | 0.6 | 0.8 | 0.4 | 0.5 | 0.3 | 0.6 | 0.7 | 0.6 | 0.1 | 0.3 | Binding of Control Serum Blood-Bank to Looped peptides [2]: 0.7; Binding of Control serum Blood-bank to linear peptides [2]: 0.7; Binding of Control serum LUMC to linear peptides [2]: 0.7; Binding of Control serum LUMC to looped peptides [2]: 0.9; Binding of a rabbit serum to linear peptides of protein N of SARS-CoV Urbani (Rabbit serum linear peptides) [3]: 0.1; Binding of a rabbit serum to looped/cyclic peptides of protein N of SARS-CoV Urbani (Rabbit serum looped peptides) [3]: 0.6
PAADMDDFSRQLQNS | 0.3 | 0.3 | 0.2 | 0.1 | 0.2 | 0.3 | 0.6 | 1.1 | 0.8 | 0.6 | 0.7 | 0.3 | 0.6 | 0.3 | 0.3 | 0.3 | 0.5 | 0.3 | 0.1 | 0.2 | Control Serum Blood-Bank Looped peptides [2]: 0.3; Control serum Blood-bank linear peptides [2]: 0.8; Control serum LUMC linear peptides [2]: 0.8; Control serum LUMC looped peptides [2]: 0.3; Binding of a rabbit serum to linear peptides of protein N of SARS-CoV Urbani (Rabbit serum linear peptides) [3]: 0.2; Binding of a rabbit serum to looped/cyclic peptides of protein N of SARS-CoV Urbani (Rabbit serum looped peptides) [3]: 0.3
PDDQIGYYRRATRRV | 0.2 | 0.4 | 0.1 | 0.3 | 0.2 | 0.6 | 0.2 | 0.5 | 0.6 | 0.9 | 0.5 | 0.8 | 0.4 | 0.5 | 0.3 | 0.8 | 0.6 | 0.7 | 0.1 | 0.3 | Binding of Control Serum Blood-Bank to Looped peptides [2]: 0.8; Binding of Control serum Blood-bank to linear peptides [2]: 0.6; Binding of Control serum LUMC to linear peptides [2]: 0.6; Binding of Control serum LUMC to looped peptides [2]: 0.8; Recognition of the peptide by the rabbit serum [3]: recognized
PEASLPYGANKEGIV | 0.3 | 0.3 | 0.1 | 0.2 | 0.2 | 0.4 | 0.2 | 0.2 | 0.7 | 0.4 | 0.7 | 0.3 | 0.5 | 0.3 | 0.3 | 0.3 | 0.6 | 0.2 | 0.1 | 0.2 | Binding of Control Serum Blood-Bank to Looped peptides [2]: 0.5; Binding of Control serum Blood-bank to linear peptides [2]: 0.9; Binding of Control serum LUMC to linear peptides [2]: 0.7; Binding of Control serum LUMC to looped peptides [2]: 0.6; Binding of a rabbit serum to linear peptides of protein N of SARS-CoV Urbani (Rabbit serum linear peptides) [3]: 0.1; Binding of a rabbit serum to looped/cyclic peptides of protein N of SARS-CoV Urbani (Rabbit serum looped peptides) [3]: 0.2
PEQTQGNFGDQDLIR | – | 0.4 | – | 0.4 | – | 0.4 | – | 0.2 | – | 0.6 | – | 0.4 | – | 0.4 | – | 0.4 | – | 0.6 | 0.1 | 0.2 | Recognition of the peptide by sera of SARS-CoV infected individuals, and form (linear, looped/cyclic) in which it is recognized [1]: recognized in linear form; Binding of Control Serum Blood-Bank to Looped peptides [2]: 0.5; Binding of Control serum Blood-bank to linear peptides [2]: 0.8; Binding of Control serum LUMC to linear peptides [2]: 0.9; Binding of Control serum LUMC to looped peptides [2]: 0.6; Binding of a rabbit serum to linear peptides of protein N of SARS-CoV Urbani (Rabbit serum linear peptides) [3]: 0.1; Binding of a rabbit serum to looped/cyclic peptides of protein N of SARS-CoV Urbani (Rabbit serum looped peptides) [3]: 0.5

— US20070128217A1 (priority 2003, published 2007)
